For one assay, the target named is LRRK2 (Homo sapiens, UniProt Q5S007). The experiment in a line: LRRK2-LRRK2 G2019S-Assay (LanthaScreen Eu Kinase Binding Assay). The note with it: 5 nM LRRK2, 10 nM tracer 236, 2 nM EU-Anti-GST antibody, 1 h at RT; read-out: LRRK2 Activities: IC50. The method, boiled down:
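Compound competition with Alexa Fluor 647 tracer 236 (10 nM) was measured after 1 h at room temperature, using 5 nM LRRK2 (wild type or mutant) bound to 2 nM Eu-anti-GST antibody. IC50 was derived from the acceptor/donor (665/615 nm) ratio using a variable-slope dose-response fit.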

A further assay addresses T1, SYK kinase (Homo sapiens, UniProt P43405).
T1 construct: purchased Invitrogen, Carlsbad
The experiment in a line: SYK Assay (OMNIA Kinase Assay, SOX peptide fluorescence). The assay is classed as biochemical. The conditions noted are these: 1 mM ATP, 10 μM Omnia Peptide Substrate Tyr 7, 30° C., readings for 30 minutes; read-out: SYK Activities: IC50. The method, boiled down:
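The reaction was run at 30 °C with 1 mM ATP, 0.2 mM DTT and 10 μM Omnia Tyr 7 peptide (final) and started by adding SYK. Chelation-enhanced SOX fluorescence (ex 360/em 485 nm) was read every 30 s for 30 min. Reaction velocity versus inhibitor concentration was fitted sigmoidally for IC50.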

30 molecules from US10752624B2, “Kinase inhibitors” (Origenis GmbH, priority 2012, dated 2020) can be followed below.

A value given as a limit tells only on which side of the number the result lay.

A word on the IC50: it is the concentration that inhibits the measured activity by half.

Chain of LRRK2 (Q5S007 970-2527 limits assumed): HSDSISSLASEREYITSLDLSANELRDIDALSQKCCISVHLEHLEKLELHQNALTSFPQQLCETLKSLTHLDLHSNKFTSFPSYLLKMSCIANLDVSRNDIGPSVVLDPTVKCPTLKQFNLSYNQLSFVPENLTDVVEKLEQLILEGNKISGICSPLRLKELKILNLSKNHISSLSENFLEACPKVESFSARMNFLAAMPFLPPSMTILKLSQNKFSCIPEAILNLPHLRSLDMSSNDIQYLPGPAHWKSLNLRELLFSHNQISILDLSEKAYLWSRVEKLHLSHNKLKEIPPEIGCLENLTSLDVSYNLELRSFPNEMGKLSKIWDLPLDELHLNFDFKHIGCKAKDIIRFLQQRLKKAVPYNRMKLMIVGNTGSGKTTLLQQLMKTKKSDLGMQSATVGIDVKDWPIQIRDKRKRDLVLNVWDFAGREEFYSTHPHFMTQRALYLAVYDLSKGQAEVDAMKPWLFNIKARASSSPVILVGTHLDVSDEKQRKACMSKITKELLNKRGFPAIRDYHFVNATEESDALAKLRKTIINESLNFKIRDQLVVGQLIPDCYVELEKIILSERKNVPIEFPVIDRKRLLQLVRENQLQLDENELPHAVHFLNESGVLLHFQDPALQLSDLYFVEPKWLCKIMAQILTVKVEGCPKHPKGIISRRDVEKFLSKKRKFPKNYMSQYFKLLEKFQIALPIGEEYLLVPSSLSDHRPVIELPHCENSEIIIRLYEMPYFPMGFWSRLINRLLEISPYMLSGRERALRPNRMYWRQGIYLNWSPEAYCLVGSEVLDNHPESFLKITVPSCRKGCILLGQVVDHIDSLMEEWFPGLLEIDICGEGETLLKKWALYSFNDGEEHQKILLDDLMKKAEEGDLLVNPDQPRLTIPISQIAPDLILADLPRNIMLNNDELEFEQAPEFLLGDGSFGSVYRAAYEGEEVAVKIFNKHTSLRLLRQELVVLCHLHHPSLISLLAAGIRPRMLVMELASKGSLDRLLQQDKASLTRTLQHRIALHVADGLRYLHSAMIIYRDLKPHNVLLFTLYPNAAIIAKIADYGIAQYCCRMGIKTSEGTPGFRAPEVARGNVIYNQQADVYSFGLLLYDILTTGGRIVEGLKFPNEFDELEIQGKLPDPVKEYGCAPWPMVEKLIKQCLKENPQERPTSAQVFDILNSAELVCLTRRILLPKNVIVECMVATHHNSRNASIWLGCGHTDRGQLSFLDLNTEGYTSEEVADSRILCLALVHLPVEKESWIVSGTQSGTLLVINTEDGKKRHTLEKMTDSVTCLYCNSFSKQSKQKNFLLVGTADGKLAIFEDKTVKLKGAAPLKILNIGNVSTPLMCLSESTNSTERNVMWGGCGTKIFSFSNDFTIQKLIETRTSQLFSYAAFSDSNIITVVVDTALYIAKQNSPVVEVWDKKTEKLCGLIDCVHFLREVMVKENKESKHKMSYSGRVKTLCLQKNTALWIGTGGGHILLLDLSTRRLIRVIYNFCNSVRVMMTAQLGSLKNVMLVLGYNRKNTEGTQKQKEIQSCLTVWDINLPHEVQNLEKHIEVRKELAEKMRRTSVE

As for `COc1ccc2nc(Nc3cnn(CC(=O)N(C)C)c3)c3n[nH]cc3c2c1` [Example 311, 2-(4-((8-methoxy-2H-pyrazolo[3,4-c]quinolin-4-yl)amino)-1H-pyrazol-1-yl)-N,N-dimethylacetamide], the results for the IC50 at LRRK2 and at SYK kinase were 10 to 100 nM and 100 to 1000 nM, respectively.
For `CC(C)(C)n1cc(Nc2nc3ccc(S(C)(=O)=O)cc3c3cn[nH]c23)cn1` [Example 195, N-(1-(tert-butyl)-1H-pyrazol-4-yl)-8-(methylsulfonyl)-3H-pyrazolo[3,4-c]quinolin-4-amine] the same measures were under 10 nM and 10 to 100 nM.
For `COc1ccc2nc(Nc3cnn(C(C)C(C)C)c3)c3n[nH]cc3c2c1` (stereo not drawn) [Example 321, 8-methoxy-N-(1-(3-methylbutan-2-yl)-1H-pyrazol-4-yl)-2H-pyrazolo[3,4-c]quinolin-4-amine] the same measures were 10 to 100 nM and 100 to 1000 nM.
For `COc1cccc2nc(Nc3cnn(C=C(C)C)c3)c3[nH]ncc3c12` [Example 259, 9-methoxy-N-(1-(2-methylprop-1-en-1-yl)-1H-pyrazol-4-yl)-3H-pyrazolo[3,4-c]quinolin-4-amine] the same measures were under 10 nM and 100 to 1000 nM.
`COc1ccc2nc(Nc3cnn(CC(C)C)c3)c3[nH]ncc3c2c1` [Example 285, N-(1-isobutyl-1H-pyrazol-4-yl)-8-methoxy-3H-pyrazolo[3,4-c]quinolin-4-amine]: the IC50 is 10 to 100 nM at LRRK2 and 100 to 1000 nM at SYK kinase.
As to `CC(C)C(C)n1cc(Nc2nc3ccc(S(C)(=O)=O)cc3c3c[nH]nc23)cn1` (stereo not drawn) [Example 324, N-(1-(3-methylbutan-2-yl)-1H-pyrazol-4-yl)-8-(methylsulfonyl)-2H-pyrazolo[3,4-c]quinolin-4-amine], the half-maximal inhibitory concentration (IC50) on LRRK2 is under 10 nM; at SYK kinase it was 10 to 100 nM.
For `COc1cccc2nc(Nc3cnn(CCF)c3)c3[nH]ncc3c12` [Example 253, N-(1-(2-fluoroethyl)-1H-pyrazol-4-yl)-9-methoxy-3H-pyrazolo[3,4-c]quinolin-4-amine], in that order: under 10 nM and 100 to 1000 nM.
For `CN1CCC(n2cc(Nc3nc4cc(S(C)(=O)=O)ccc4c4cn[nH]c34)cn2)CC1` [Example 167, N-(1-(1-methylpiperidin-4-yl)-1H-pyrazol-4-yl)-7-(methylsulfonyl)-3H-pyrazolo[3,4-c]quinolin-4-amine] the same measures were 100 to 1000 nM and 10 to 100 nM.
For `CC(C(=O)O)n1cc(Nc2nc3ccc(S(C)(=O)=O)cc3c3c[nH]nc23)cn1` (stereo not drawn) [Example 334, 2-(4-((8-(methylsulfonyl)-2H-pyrazolo[3,4-c]quinolin-4-yl)amino)-1H-pyrazol-1-yl)propanoic acid] the same measures were 10 to 100 nM and 10 to 100 nM.
With `COc1cccc2nc(Nc3ccc(-c4cnco4)cc3)c3[nH]ncc3c12` [Example 57, 9-methoxy-N-(4-(oxazol-5-yl)phenyl)-3H-pyrazolo[3,4-c]quinolin-4-amine], the IC50 at LRRK2 was in the range of 10 to 100 nM; on SYK kinase it was 100 to 1000 nM.
For `CS(=O)(=O)c1cccc(Nc2nc3ccc(S(C)(=O)=O)cc3c3cn[nH]c23)c1` [Example 78, 8-(methylsulfonyl)-N-(3-(methylsulfonyl)phenyl)-3H-pyrazolo[3,4-c]quinolin-4-amine], in that order: 10 to 100 nM and 100 to 1000 nM.
For `COc1cccc2nc(Nc3cnn(CCO)c3)c3[nH]ncc3c12` [Example 199, 2-(4-((9-methoxy-3H-pyrazolo[3,4-c]quinolin-4-yl)amino)-1H-pyrazol-1-yl)ethan-1-ol], in that order: under 10 nM and 100 to 1000 nM.
For `CC(C)(C)N1CCN(c2ccc(Nc3nc4ccc(S(C)(=O)=O)cc4c4cn[nH]c34)cc2)CC1` [Example 80, N-(4-(4-(tert-butyl)piperazin-1-yl)phenyl)-8-(methylsulfonyl)-3H-pyrazolo[3,4-c]quinolin-4-amine], in that order: 10 to 100 nM and 10 to 100 nM.
On to `COC(C)(C)Cn1cc(Nc2nc3ccc(S(C)(=O)=O)cc3c3cn[nH]c23)cn1` [Example 315, N-(1-(2-methoxy-2-methylpropyl)-1H-pyrazol-4-yl)-8-(methylsulfonyl)-3H-pyrazolo[3,4-c]quinolin-4-amine], for which the IC50 at LRRK2 and on SYK kinase was 10 to 100 nM throughout.
In the case of `COCCCn1cc(Nc2nc3cccc(OC)c3c3cn[nH]c23)cn1` [Example 183, 9-methoxy-N-(1-(3-methoxypropyl)-1H-pyrazol-4-yl)-3H-pyrazolo[3,4-c]quinolin-4-amine], the half-maximal inhibitory concentration (IC50) on LRRK2 is under 10 nM; at SYK kinase, 100 to 1000 nM.
For `CN1CCN(c2ccc(Nc3nc4ccc(S(C)(=O)=O)cc4c4cn[nH]c34)cn2)CC1` [Example 81, N-(6-(4-methylpiperazin-1-yl)pyridin-3-yl)-8-(methylsulfonyl)-3H-pyrazolo[3,4-c]quinolin-4-amine], in that order: 10 to 100 nM and 100 to 1000 nM.
For `CO[C@H]1CCCC[C@H]1n1cc(Nc2nc3ccc(S(C)(=O)=O)cc3c3c[nH]nc23)cn1` [Example 353, N-(1-((1R,2S)-2-methoxycyclohexyl)-1H-pyrazol-4-yl)-8-(methylsulfonyl)-2H-pyrazolo[3,4-c]quinolin-4-amine], in that order: under 10 nM and 100 to 1000 nM.
For `CS(=O)(=O)c1ccc2nc(Nc3cnn(C4COC4)c3)c3[nH]ncc3c2c1` [Example 173, 8-(methylsulfonyl)-N-(1-(oxetan-3-yl)-1H-pyrazol-4-yl)-3H-pyrazolo[3,4-c]quinolin-4-amine] the same measures were 10 to 100 nM and under 10 nM.
As to `CS(=O)(=O)c1ccc2c(c1)nc(Nc1ccc3c(c1)NC(=O)CCC3)c1[nH]ncc12` [Example 119, 8-((7-(methylsulfonyl)-3H-pyrazolo[3,4-c]quinolin-4-yl)amino)-4,5-dihydro-1H-benzo[b]azepin-2(3H)-one], the values for the IC50 on LRRK2 and at SYK kinase were 100 to 1000 nM and 10 to 100 nM, respectively.
For `COCCCn1ncc(Nc2nc3ccc(S(C)(=O)=O)cc3c3cn[nH]c23)c1OC` [Example 232, N-(5-methoxy-1-(3-methoxypropyl)-1H-pyrazol-4-yl)-8-(methylsulfonyl)-3H-pyrazolo[3,4-c]quinolin-4-amine] the same measures were 10 to 100 nM and 100 to 1000 nM.
`CC(C)(O)Cn1cc(Nc2nc3cc(S(C)(=O)=O)ccc3c3cn[nH]c23)cn1` [Example 329, 2-methyl-1-(4-((7-(methylsulfonyl)-3H-pyrazolo[3,4-c]quinolin-4-yl)amino)-1H-pyrazol-1-yl)propan-2-ol]: the half-maximal inhibitory concentration (IC50) at LRRK2 lay within 100 to 1000 nM; at SYK kinase it was 10 to 100 nM.
For `COCC(COC)n1cc(Nc2nc3cccc(OC)c3c3cn[nH]c23)cn1` [Example 340, N-(1-(1,3-dimethoxypropan-2-yl)-1H-pyrazol-4-yl)-9-methoxy-3H-pyrazolo[3,4-c]quinolin-4-amine] the same measures were under 10 nM and 100 to 1000 nM.
For `COc1ccc2nc(Nc3ccc(N4CCC(N5CCOCC5)CC4)cc3)c3n[nH]cc3c2c1` [Example 86, 8-methoxy-N-(4-(4-morpholinopiperidin-1-yl)phenyl)-2H-pyrazolo[3,4-c]quinolin-4-amine] the same measures were 100 to 1000 nM and 100 to 1000 nM.
For `COc1ccc2nc(Nc3ccc4[nH]c(SC)nc4c3)c3n[nH]cc3c2c1` [Example 56, 8-methoxy-N-(2-(methylthio)-1H-benzo[d]imidazol-5-yl)-2H-pyrazolo[3,4-c]quinolin-4-amine], in that order: 100 to 1000 nM and 100 to 1000 nM.
With `COc1cccc2nc(Nc3cnn(C(C)C)c3)c3[nH]ncc3c12` [Example 182, N-(1-isopropyl-1H-pyrazol-4-yl)-9-methoxy-3H-pyrazolo[3,4-c]quinolin-4-amine], the IC50 at LRRK2 was under 10 nM; at SYK kinase, 10 to 100 nM.
For `CS(=O)(=O)c1ccc2c(c1)nc(Nc1cnn(CCO)c1)c1[nH]ncc12` [Example 193, 2-(4-((7-(methylsulfonyl)-3H-pyrazolo[3,4-c]quinolin-4-yl)amino)-1H-pyrazol-1-yl)ethan-1-ol] the same measures were under 10 nM and 10 to 100 nM.
For `CN1C(=O)COc2ccc(Nc3nc4ccc(S(C)(=O)=O)cc4c4c[nH]nc34)cc21` [Example 328, 4-methyl-6-((8-(methylsulfonyl)-2H-pyrazolo[3,4-c]quinolin-4-yl)amino)-2H-benzo[b][1,4]oxazin-3(4H)-one], in that order: 10 to 100 nM and 100 to 1000 nM.
For `COc1nn(C(C)C)cc1Nc1nc2ccc(S(C)(=O)=O)cc2c2cn[nH]c12` [Example 226, N-(1-isopropyl-3-methoxy-1H-pyrazol-4-yl)-8-(methylsulfonyl)-3H-pyrazolo[3,4-c]quinolin-4-amine] the same measures were under 10 nM and 100 to 1000 nM.
For the molecule `COc1ccc2nc(Nc3cnn(C(C)(C)C#N)c3)c3[nH]ncc3c2c1` [Example 301, 2-(4-((8-methoxy-3H-pyrazolo[3,4-c]quinolin-4-yl)amino)-1H-pyrazol-1-yl)-2-methylpropanenitrile], the IC50 at LRRK2 was under 10 nM; on SYK kinase, 10 to 100 nM.
For `CS(=O)(=O)c1ccc2nc(Nc3ccc(N4CCN(CCO)CC4)cc3)c3[nH]ncc3c2c1` [Example 309, 2-(4-(4-((8-(methylsulfonyl)-3H-pyrazolo[3,4-c]quinolin-4-yl)amino)phenyl)piperazin-1-yl)ethan-1-ol] the same measures were under 10 nM and 10 to 100 nM.
